Consider one compound from ChEMBL document CHEMBL1140941 (J Med Chem, 2009).

The inhibition is the percentage by which the read-out fell short of the control.

Active and inactive are the calls of the source. The rule behind the calls is not given here.

The target of series [1] is Nuclear receptor subfamily 1 group I member 2 (Homo sapiens, UniProt O75469). Kind of series: Agonist activity at SXR expressed in african green monkey CV1 cells co-expressing MH100 up to 10 uM by luciferase reporter gene assay relative to control. It counts as functional, cell-based. The following applies: cv-1.
Chain of Nuclear receptor subfamily 1 group I member 2 (O75469 whole entry): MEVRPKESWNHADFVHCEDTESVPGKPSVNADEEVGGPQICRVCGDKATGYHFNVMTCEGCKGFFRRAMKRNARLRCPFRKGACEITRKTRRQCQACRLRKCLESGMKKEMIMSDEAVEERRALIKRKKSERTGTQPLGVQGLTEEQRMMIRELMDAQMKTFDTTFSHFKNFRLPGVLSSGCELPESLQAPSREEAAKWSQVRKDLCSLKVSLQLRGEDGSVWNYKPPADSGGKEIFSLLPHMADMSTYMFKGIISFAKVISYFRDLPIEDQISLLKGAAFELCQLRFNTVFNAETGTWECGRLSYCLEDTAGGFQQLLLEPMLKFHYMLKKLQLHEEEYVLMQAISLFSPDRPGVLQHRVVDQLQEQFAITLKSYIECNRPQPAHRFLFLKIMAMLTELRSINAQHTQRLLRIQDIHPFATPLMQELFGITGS
Series [2] deals with T1, Glucocorticoid receptor (Homo sapiens) (UniProt P04150).
T1 sequence (whole entry): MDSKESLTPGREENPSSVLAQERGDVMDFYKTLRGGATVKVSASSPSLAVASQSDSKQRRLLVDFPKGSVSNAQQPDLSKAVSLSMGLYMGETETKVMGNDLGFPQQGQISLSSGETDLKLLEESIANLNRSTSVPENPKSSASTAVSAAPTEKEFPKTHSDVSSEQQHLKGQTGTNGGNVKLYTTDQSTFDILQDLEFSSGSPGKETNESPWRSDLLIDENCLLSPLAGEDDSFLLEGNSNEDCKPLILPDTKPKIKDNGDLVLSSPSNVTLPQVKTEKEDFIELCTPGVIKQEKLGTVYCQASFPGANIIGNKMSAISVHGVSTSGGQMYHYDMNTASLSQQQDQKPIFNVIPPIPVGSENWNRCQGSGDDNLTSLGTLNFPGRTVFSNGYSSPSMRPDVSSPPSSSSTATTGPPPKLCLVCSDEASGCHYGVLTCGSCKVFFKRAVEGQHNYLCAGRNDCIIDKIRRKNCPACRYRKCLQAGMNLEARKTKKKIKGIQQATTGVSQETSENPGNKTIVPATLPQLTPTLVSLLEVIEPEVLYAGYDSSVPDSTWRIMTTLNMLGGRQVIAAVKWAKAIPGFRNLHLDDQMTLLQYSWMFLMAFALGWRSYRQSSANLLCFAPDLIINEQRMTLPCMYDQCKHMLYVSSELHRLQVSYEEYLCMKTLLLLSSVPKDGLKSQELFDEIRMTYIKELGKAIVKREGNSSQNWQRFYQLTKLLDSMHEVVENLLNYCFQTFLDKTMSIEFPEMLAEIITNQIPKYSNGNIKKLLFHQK
In words: Agonist activity at gal-GR expressed in african green monkey CV1 cells co-expressing MH100 by luciferase reporter gene assay. It counts as functional, cell-based. The following applies: CV-1. For orientation: In a reporter assay the amount or activity of a reporter protein is the signal.

For series [3], the target named is T2, Bile acid receptor (Homo sapiens) (UniProt Q96RI1).
T2 sequence (whole entry): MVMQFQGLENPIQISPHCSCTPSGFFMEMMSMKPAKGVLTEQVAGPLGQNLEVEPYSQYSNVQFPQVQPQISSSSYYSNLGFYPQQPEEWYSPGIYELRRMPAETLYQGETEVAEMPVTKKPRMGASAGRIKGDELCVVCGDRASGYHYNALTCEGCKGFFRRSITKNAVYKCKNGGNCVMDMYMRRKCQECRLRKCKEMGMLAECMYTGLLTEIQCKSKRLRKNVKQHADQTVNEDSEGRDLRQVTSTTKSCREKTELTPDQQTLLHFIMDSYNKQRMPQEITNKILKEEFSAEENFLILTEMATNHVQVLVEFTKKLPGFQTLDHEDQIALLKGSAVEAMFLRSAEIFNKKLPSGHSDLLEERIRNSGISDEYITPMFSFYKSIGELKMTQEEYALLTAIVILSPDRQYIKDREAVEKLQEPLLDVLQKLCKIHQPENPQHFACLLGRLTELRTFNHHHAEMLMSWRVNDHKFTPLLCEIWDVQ
In words: Antagonist activity at human FXR expressed in african green monkey CV1 cells co-expressing RXRE with RXR co-factor by luciferase reporter gene assay. It counts as functional, cell-based. The following applies: CV-1.

The subject of another series is Mus musculus. Kind of series: Reduction of plasma triglyceride level in C57BL/6 mouse at 10 mg/kg, po administered for 7 days measured after 3 hrs. The series is classed as ADME, organism-based. Details: dose 10 mg/kg, route oral. The following applies: in vivo.
For series [4], the target named is Retinoic acid receptor gamma (Homo sapiens) (UniProt P13631). In words: Agonist activity at gal-RARgamma expressed in african green monkey CV1 cells co-expressing MH100 up to 10 uM by luciferase reporter gene assay relative to control. The following applies: CV-1. The series is classed as functional, cell-based.
Chain of Retinoic acid receptor gamma (Homo sapiens) (P13631 whole entry): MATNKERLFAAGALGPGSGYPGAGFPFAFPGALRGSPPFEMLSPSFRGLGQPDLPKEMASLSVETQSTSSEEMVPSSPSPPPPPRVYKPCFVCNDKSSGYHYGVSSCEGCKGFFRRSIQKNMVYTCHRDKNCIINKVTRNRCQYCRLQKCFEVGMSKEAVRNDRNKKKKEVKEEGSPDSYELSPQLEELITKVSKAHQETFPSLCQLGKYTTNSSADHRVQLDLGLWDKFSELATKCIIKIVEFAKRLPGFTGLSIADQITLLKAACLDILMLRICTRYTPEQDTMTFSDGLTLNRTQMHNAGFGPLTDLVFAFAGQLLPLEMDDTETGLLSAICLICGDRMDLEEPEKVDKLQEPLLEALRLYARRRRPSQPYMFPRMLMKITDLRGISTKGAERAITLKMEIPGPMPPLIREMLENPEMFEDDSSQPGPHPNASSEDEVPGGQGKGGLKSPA
The target in series [5] is T3, Progesterone receptor (Homo sapiens) (UniProt P06401).
T3 sequence (whole entry): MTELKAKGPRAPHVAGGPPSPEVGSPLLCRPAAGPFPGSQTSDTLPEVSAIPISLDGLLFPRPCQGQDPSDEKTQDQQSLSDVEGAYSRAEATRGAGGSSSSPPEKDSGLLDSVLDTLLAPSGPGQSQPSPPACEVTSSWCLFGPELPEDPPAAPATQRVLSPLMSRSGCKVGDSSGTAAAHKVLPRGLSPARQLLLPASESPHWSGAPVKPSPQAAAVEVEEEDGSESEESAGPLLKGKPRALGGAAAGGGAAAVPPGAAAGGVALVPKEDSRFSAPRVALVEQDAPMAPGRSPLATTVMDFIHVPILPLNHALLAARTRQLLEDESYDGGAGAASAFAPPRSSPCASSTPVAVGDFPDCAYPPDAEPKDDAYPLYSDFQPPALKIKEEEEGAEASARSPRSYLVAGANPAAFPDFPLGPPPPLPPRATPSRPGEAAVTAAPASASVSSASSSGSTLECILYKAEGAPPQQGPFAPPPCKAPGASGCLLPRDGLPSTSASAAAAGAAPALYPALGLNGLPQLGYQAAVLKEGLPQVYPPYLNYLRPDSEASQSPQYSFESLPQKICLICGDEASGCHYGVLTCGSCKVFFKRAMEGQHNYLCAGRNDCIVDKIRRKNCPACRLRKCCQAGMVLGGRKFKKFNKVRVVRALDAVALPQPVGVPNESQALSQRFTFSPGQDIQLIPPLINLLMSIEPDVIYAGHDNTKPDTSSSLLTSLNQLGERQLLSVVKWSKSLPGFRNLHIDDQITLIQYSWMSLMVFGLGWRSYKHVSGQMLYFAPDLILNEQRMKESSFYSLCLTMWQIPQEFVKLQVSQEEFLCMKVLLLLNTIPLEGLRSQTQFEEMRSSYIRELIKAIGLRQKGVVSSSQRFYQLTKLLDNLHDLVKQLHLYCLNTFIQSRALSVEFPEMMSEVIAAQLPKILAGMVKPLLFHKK
In words: Antagonist activity at gal-PR expressed in african green monkey CV1 cells co-expressing MH100 at 10 uM by luciferase reporter gene assay. It counts as functional, cell-based. The following applies: CV-1.

For `CC(C)OC(=O)C1=CN(C(=O)c2ccc(F)c(F)c2)CC(C)(C)c2c1[nH]c1ccccc21` [TUROFEXORATE ISOPROPYL], the Activity entry in series [1] was “Not Active”; with Mus musculus it was 62 mg/dL. The result in series [2], in series [3] and in series [4] was inactive. Also, the inhibition in series [5] was 14%.
